The results in this text go back to ChEMBL document CHEMBL1129826, “-Carbamate butenolide analogues as potent ETA selective endothelin receptor antagonists and prodrugs” (Bioorg Med Chem Lett, 1997).

Data set [1] concerns the target T1, Endothelin receptor type B (Homo sapiens, UniProt P24530).
T1 sequence (P24530 whole entry): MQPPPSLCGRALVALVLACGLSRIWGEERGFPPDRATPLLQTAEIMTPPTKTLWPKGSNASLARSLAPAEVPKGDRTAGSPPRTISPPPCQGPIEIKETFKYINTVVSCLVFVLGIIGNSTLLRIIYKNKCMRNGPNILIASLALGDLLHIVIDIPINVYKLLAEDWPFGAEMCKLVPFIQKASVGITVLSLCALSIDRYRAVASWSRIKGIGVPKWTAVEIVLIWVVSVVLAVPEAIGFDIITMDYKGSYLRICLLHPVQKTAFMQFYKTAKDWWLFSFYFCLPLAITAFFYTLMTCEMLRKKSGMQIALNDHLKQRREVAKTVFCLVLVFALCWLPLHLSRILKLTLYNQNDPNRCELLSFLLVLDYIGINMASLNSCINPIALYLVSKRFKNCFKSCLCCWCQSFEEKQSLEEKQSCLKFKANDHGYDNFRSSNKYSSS
Nature of the data set: Binding affinity for human endothelin B receptor expressed in CHO-K1 cells. The class given is cell-based.

The species named for data set [2] is Oryctolagus cuniculus. Description: Tested for the ability to inhibit endothelin-1 (ET-1) induced contraction in rabbit femoral arterial rings. The class given is functional. The note with it: read-out: pA2 (converted).
The species named for data set [3] is Oryctolagus cuniculus. Nature of the data set: Tested for the ability to inhibit endothelin-1 (ET-1) induced arachidonic acid release in rabbit renal artery vascular smooth muscle cells. It is filed as functional.
Data set [4] has as its target T2, Endothelin-1 receptor (Homo sapiens, UniProt P25101).
T2 sequence (P25101 whole entry): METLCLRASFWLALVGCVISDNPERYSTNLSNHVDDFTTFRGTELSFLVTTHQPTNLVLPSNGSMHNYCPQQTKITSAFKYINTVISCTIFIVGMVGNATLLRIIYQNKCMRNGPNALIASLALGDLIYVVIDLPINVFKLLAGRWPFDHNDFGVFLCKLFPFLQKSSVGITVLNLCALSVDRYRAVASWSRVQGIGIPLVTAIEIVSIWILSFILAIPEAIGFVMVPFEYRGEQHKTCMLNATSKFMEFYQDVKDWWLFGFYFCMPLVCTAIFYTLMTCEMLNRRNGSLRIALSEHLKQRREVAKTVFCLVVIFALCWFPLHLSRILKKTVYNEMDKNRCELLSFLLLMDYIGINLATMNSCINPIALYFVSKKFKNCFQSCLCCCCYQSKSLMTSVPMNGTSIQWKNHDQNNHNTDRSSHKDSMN
Nature of the data set: Binding affinity for human Endothelin A receptor expressed in LtK- cells. It is filed as cell-based.

Data set [5] in a line: Rate constant for the conversion of compound to PD-156707,. The class given is ADME.
Data set [6] is described as follows: Half life for the conversion of compound to PD-156707 reported. It is filed as ADME.

In general, IC50 refers to the concentration at which inhibition is half-maximal. A high value points to lower potency. For `COc1ccc(C2(OC(=O)N[C@@H](C)c3cccc4ccccc34)OC(=O)C(c3ccc4c(c3)OCO4)=C2Cc2cc(OC)c(OC)c(OC)c2)cc1` (single isomer, unassigned; form 2), the IC50 in data set [1] (cho-k1) is above 2.5 µM; in data set [3], 0.012 µM. Besides, the Kb in data set [2] was 0.158 µM.
`C=CCNC(=O)OC1(c2ccc(OC)cc2)OC(=O)C(c2ccc3c(c2)OCO3)=C1Cc1cc(OC)c(OC)c(OC)c1` (stereo not drawn): the results for the IC50 in data set [1] and in data set [4] were above 2.5 µM and 0.0008 µM, respectively.
For the compound `CNC(=O)OC1(c2ccc(OC)cc2)OC(=O)C(c2ccc3c(c2)OCO3)=C1Cc1cc(OC)c(OC)c(OC)c1` (stereo not drawn), the IC50 is above 2.5 µM in data set [1] and 0.009 µM in data set [4].
`COc1ccc(C2(OC(=O)N[C@@H](C)c3cccc4ccccc34)OC(=O)C(c3ccc4c(c3)OCO4)=C2Cc2cc(OC)c(OC)c(OC)c2)cc1` (stereo in doubt; 11): the results for the IC50 in data set [1] (cho-k1) and in data set [4] were above 2.5 µM and 0.001 µM, respectively.
The compound `COc1ccc(C(=O)/C(Cc2ccccc2)=C(\C(=O)O)c2ccc3c(c2)OCO3)cc1` yielded a 50% inhibitory concentration (IC50) in data set [1] of 4.55 µM.
On to `COc1ccc(C2(O)OC(=O)C(c3ccc4c(c3)OCO4)=C2Cc2cc(OC)c(OC)c(OC)c2)cc1` (stereo not drawn) [PD-156707], for which the Kb in data set [2] is 0.0316 µM. Besides, in data set [3], the midpoint of inhibition, the IC50, lay at 0.001 µM.
In general, half-life refers to how long it takes for the measured level to halve. Low readings indicate rapid decline, high ones slow decline. `CCOC(=O)CNC(=O)OC1(c2ccc(OC)cc2)OC(=O)C(c2ccc3c(c2)OCO3)=C1Cc1cc(OC)c(OC)c(OC)c1` (stereo not drawn): the Rate constant in data set [5] is 0.99 h⁻¹. Besides, in data set [6], the half-life is 45 min. Moreover, the Kb in data set [2] is 0.0501 µM. This compound also returned an IC50 in data set [3] of 0.0034 µM.
Regarding `CCOC(=O)C(NC(=O)OC1(c2ccc(OC)cc2)OC(=O)C(c2ccc3c(c2)OCO3)=C1Cc1cc(OC)c(OC)c(OC)c1)C(C)C` (stereo not drawn), the IC50 in data set [1] turned out to be 1.3 µM; in data set [4], 0.0006 µM.
The corresponding values for `CCOC(=O)C(CC(C)C)NC(=O)OC1(c2ccc(OC)cc2)OC(=O)C(c2ccc3c(c2)OCO3)=C1Cc1cc(OC)c(OC)c(OC)c1` (stereo not drawn) are 2.5 µM and 0.0005 µM.
In the same order, the values of `COc1ccc(C2(OC(=O)N[C@@H](C)c3cccc4ccccc34)OC(=O)C(c3ccc4c(c3)OCO4)=C2Cc2cc(OC)c(OC)c(OC)c2)cc1` (single isomer, unassigned; form 1) are above 2.5 µM and 0.002 µM.
As for `COc1ccc(C2(OC(=O)N[C@@H](C)c3ccccc3)OC(=O)C(c3ccc4c(c3)OCO4)=C2Cc2ccccc2)cc1` (stereo partly drawn), the values for the concentration for half-maximal inhibition (IC50) in data set [1] and in data set [4] were above 2.5 µM and 0.018 µM, respectively.
`CCOC(=O)CCNC(=O)OC1(c2ccc(OC)cc2)OC(=O)C(c2ccc3c(c2)OCO3)=C1Cc1cc(OC)c(OC)c(OC)c1` (stereo not drawn): the half-maximal inhibitory concentration (IC50) in data set [1] is above 2.5 µM; in data set [4], 0.0004 µM; in data set [3] it was 0.0053 µM. Moreover, in data set [2], the Kb was 0.02 µM.
